Measured values reported in patent US20240400555A1 (Initial Therapeutics, Inc., priority 2023, published 2024).

Key:
[1] = system: NB4 cells and Nalm-6 cells; details: APL-derived NB4 cells and ALL-derived Nalm-6 cells; cited from earlier work
[2] = system: human lung cancer cell lines (H23 and H292); details: cited from earlier work
[3] = system: c-MYC; assay: In Vitro Translation Dose-Response Curves (In Vitro Multiple Point Translation Screening Assay); assay type: biochemical; details: IVT dose response curve
Method: HeLa S3 cell Preparation. HeLa S3 cells were grown essentially as described in Mikami 2010. Frozen aliquots of banked HeLa cells (ATCC #CCL-2.2) were thawed and diluted into agitated suspension culture in CD293 medium supplemented with 10% HI FBS, 1× GlutaMAX, and 1× Pen/Strep. Cells were expanded in suspension over 10 passages to inoculate 3×20 L wave bag bioreactors and cultured for approximately 48 h to a final density of 1.81×10^6 viable cells per mL. Cells were pelleted by centrifugation at 2500 RCF for 15 min at 4° C. Two 1 L pellets were combined in 32 sets and re-pelleted in 50 ml conical tubes, resulting in 32×10 mL cell pellets weighing approximately 10 g each. Final pellets were snap frozen in liquid nitrogen and stored at −80° C. (cell culture, harvesting, and cryo-preservation completed at LakePharma). Cell pellets were subsequently thawed at RT, resuspended in 15 mL wash buffer (35 mM HEPES-KOH, pH 7.5, 140 mM NaCl, and 11 mM glucose), then re-pelleted by centrifugation at 2500 RCF for 10 min at 4° C. The supernatant was discarded and the wash step repeated 2×. The pellets were resuspended each pellet in 10 mL in hypertonic extraction buffer (20 mM HEPES-KOH, pH 7.5, 45 mM potassium acetate, 45 mM KCl, 1.8 mM magnesium acetate, and 1 mM TCEP added directly before use). The cell suspension was transferred to a cell disruption vessel (Parr Instrument Company, model 4636, 1850 mL capacity) and incubated for 15 min on ice, then sealed under nitrogen (200 PSI) for 1.5 h. The cell homogenates were released through a needle valve and collected on ice, then diluted with 1/29 volume high potassium buffer (20 mM HEPES-KOH, pH 7.5, 945 mM potassium acetate, 945 mM KCl, 1.8 mM magnesium acetate, and 1 mM TCEP). The cell homogenates were then clarified by centrifugation at 2500 RCF for 10 min at 4° C. and the supernatant collected. The clarification step was repeated 3×. The resulting cell extracts (675 mL, 2.5 mg/mL total protein) were aliquoted and flash frozen in liquid nitrogen and stored at −80° C. until use.
Translation reactions were incubated for 20 min at 30° C. Nanoluciferase luminescence was measured by combining 2 μL of IVT reaction with 20 μL of prepared reagent from the Nanoglo assay kit (Promega). A negative control of 0.5% DMSO and positive control of 50 μM puromycin were used to define to assay window.
Dose response curve IVTs were performed similar to the single point IVT screening with the following changes. The desired concentration curves were plated into 384 well plates from DMSO stocks using a Tecan D300e dispenser. […] After reaction incubation and luminescence measurement, dose-response curves were fit to the data using Prism (Graphpad) or Collaborative Drug Discovery analysis programs.

[4] = system: c-MYC; assay: Cellular c-MYC Alpha Screen; assay type: cell-based; details: Homo sapiens; c-MYC alpha screen dose response, HCT-116 reporter cells, 24 h; read-out: Geomean pIC50 (converted)
Method: HCT-116 Firefly-luciferase reporter cells (BPS bioscience) were seeded in 96-well tissue-culture treated sterile plates (Greiner Bio-One) at 7.5e4 cells/mL in 100 μL complete growth media (McCoy's 5A+10% FBS, +1% Pen-Strep, +1% G418). Cells were incubated at 37° C. with 5% CO2 for 24 h then treated with 3× compound solution in 50 μL complete growth media for a final volume of 150 μL per well with 0.2% DMSO. After 24 h incubation at 37° C. with 5% CO2, plates were allowed to equilibrate to RT for 20 min; the media was then aspirated, and the plate washed once with 200 μL 1×PBS. Cells were then lysed by addition of 1× Alpha Screen lysis buffer (50 μL) from the Perkin Elmer alpha Screen c-MYC detection kit (Part number 6760611C). The lysate is then transferred to ice and advanced to the Alpha Screen detection assay or sealed with adhesive foil and stored at −80° C. for up to 2 weeks before use.
The alpha screen detection assay was then performed as per the vendors instructions. Briefly the acceptor bead mix was prepared as per vendors instructions. 30 ul of the cell lysate is transferred to a 96-well white assay plate. 15 ul of the acceptor mix was added to each well and incubated in the dark for at least one hour. Then the donor bead mix was prepared as per vendors instructions and 15 ul of this was added to the assay plate. The plate was then incubated at RT for one hour in the dark. The plate was then read in the SpectraMax i3x plate reader (Molecular Devices) using the alpha screen module (excitation wavelength 680 emission wavelength 615) and analyzed using GraphPad Prism 9 software.

[5] = system: HCT-116 Firefly-luciferase reporter cells; assay: Cellular c-MYC Reporter Assay; assay type: cell-based; details: Homo sapiens, HCT-116, 24 h, HCT-116 Firefly-luciferase reporter cells, 24 h; read-out: Geomean pEC50 (converted)
Outline: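 Compound exposure lasted 24 h at 37 °C, 5% CO2, in complete McCoy's 5A medium containing 0.2% DMSO, beginning 4–6 h post-seeding (5e4 cells/mL). Firefly luciferase signal measured by luminescence after 10 min ONE-Glo development at room temperature.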

[6] = system: prostate cancer cell lines PC-3 and 22 Rv1; details: cited from earlier work
[7] = system: murine models of MM; details: three murine models; cited from earlier work
[8] = system: tumor growth; details: mice; cited from earlier work
[9] = system: MM cell; details: in vitro; cited from earlier work
[10] = system: xenografts of human MM; details: in vivo; cited from earlier work

SMILES: CCc1ccc(/C=C2/SC(=S)NC2=O)cc1 [Compound 10058-F4]
- viability of leukemia cells [1]: reduced viability

SMILES: CCc1ccc(O)c(CN(C)Cc2cc(CC)ccc2O)c1 [EMD, N, N-bis(5-ethyl-2-hydroxybenzyl) methylamine]
- cytotoxicity toward human lung cancer cell lines [2]: strong cytotoxicity

SMILES: Cc1cccc2ccnc(N(C(=O)c3ccc(-n4nnc5cccnc54)cc3)[C@@H]3CCCNC3)c12 [Example 50, (R)-4-(3H-[1,2,3]triazolo[4,5-b]pyridin-3-yl)-N-(8-methylisoquinolin-1-yl)-N-(piperidin-3-yl)benzamide]
- Geomean pIC50 [3]: 6.0 (n = 4)
- IC50 [4]: 158 nM

SMILES: Cc1cccc2ccnc(N(C(=O)c3ccc(Nc4ncccn4)cc3)[C@@H]3CCCNC3)c12 [Example 51, (R)-N-(8-methylisoquinolin-1-yl)-N-(piperidin-3-yl)-4-(pyrimidin-2-ylamino)benzamide]
- Geomean pIC50 [3]: 4.8 (n = 2)
- IC50 [4]: 1000 nM
- EC50 [5]: 251 nM

SMILES: C=CCc1ccc(O)c(-c2ccc(O)c(CC=C)c2)c1 [Honokiol]
- anti-cancer activity against prostate cancer cell lines [6]: significant anti-cancer activity
- levels of total and/or phosphorylated c-MYC protein and its mRNA expression [6]: marked decrease

SMILES: Cc1sc2c(c1C)C(c1ccc(Cl)cc1)=N[C@@H](CC(=O)OC(C)(C)C)c1nnc(C)n1-2 [JQ1]
- efficacy in murine models of MM [7]: efficacious in three murine models of MM

SMILES: Cn1nc(C(F)(F)F)cc1-c1ccc(OCc2ccc(Cl)cc2)c(-c2cc(C(F)(F)F)cc(C(F)(F)F)c2)c1O [MYCi361]
- in vivo tumor growth [8]: suppressed in vivo tumor growth in mice

SMILES: O=C(c1cc(Cc2n[nH]c(=O)c3ccccc23)ccc1F)N1CCN(C(=O)C2CC2)CC1 [olaparib]
- MM cell viability [9]: impaired MM cell viability in vitro
- efficacy against xenografts of human MM [10]: effective against in vivo xenografts of human MM
